From the kinase profiling compilation of Christmann-Franck et al. (2016)

Tests used:
Assay in all cases: radiometric filter-binding kinase assay
MAP3K7 TAB1 (human) = MAP3K7 TAB1 (human) (UniProt Q15750+O43318)
ROCK2 (rat) = details: accession and sequence are those of the human protein
FGFR1 (human) = FGFR1 (human) (UniProt P11362)
PRKCZ (human) = PRKCZ (human) (UniProt Q05513)
MAPK11 (human) = MAPK11 (human) (UniProt Q15759)
HIPK1 (human) = HIPK1 (human) (UniProt Q86Z02)
TAOK1 (human) = TAOK1 (human) (UniProt Q7L7X3)
SRC (human) = SRC (human) (UniProt P12931)
[1] = test system: AKT2 (human), P31751 [S474D]
EPHA2 (human) = EPHA2 (human) (UniProt P29317)
MAPKAPK5 (human) = MAPKAPK5 (human) (UniProt Q8IW41)
MINK1 (human) = MINK1 (human) (UniProt Q8N4C8)
IRAK4 (human) = IRAK4 (human) (UniProt Q9NWZ3)
CLK2 (human) = CLK2 (human) (UniProt P49760)
RIPK2 (human) = RIPK2 (human) (UniProt O43353)
MAPK14 (human) = MAPK14 (human) (UniProt Q16539)
IGF1R (human) = IGF1R (human) (UniProt P08069)
MAPK15 (human) = MAPK15 (human) (UniProt Q8TD08)
CSK (human) = CSK (human) (UniProt P41240)
CAMKK2 (human) = CAMKK2 (human) (UniProt Q96RR4)
DYRK3 (human) = DYRK3 (human) (UniProt O43781)
MARK1 (human) = MARK1 (human) (UniProt Q9P0L2)
CSNK1D (human) = CSNK1D (human) (UniProt P48730)
MAP3K1 (human) = MAP3K1 (human) (UniProt Q13233)
MELK (human) = MELK (human) (UniProt Q14680)
HIPK3 (human) = HIPK3 (human) (UniProt Q9H422)
GSK3B (human) = GSK3B (human) (UniProt P49841)
LCK (mouse) = details: accession and sequence are those of the human protein
JAK2 JH1 JH2 (human) = JAK2 JH1 JH2 (human) (UniProt O60674)
[2] = target: STK11 CAB39 STRADA (human) (UniProt Q9Y376+Q7RTN6+Q15831)
NTRK1 (human) = NTRK1 (human) (UniProt P04629)
INSR (human) = INSR (human) (UniProt P06213)
BRSK1 (human) = BRSK1 (human) (UniProt Q8TDC3)
FLT1 (human) = FLT1 (human) (UniProt P17948)
RPS6KA3 KD1 KD2 (human) = RPS6KA3 KD1 KD2 (human) (UniProt P51812)

HIPK1 (human), sequence (Q86Z02 whole entry, looked up): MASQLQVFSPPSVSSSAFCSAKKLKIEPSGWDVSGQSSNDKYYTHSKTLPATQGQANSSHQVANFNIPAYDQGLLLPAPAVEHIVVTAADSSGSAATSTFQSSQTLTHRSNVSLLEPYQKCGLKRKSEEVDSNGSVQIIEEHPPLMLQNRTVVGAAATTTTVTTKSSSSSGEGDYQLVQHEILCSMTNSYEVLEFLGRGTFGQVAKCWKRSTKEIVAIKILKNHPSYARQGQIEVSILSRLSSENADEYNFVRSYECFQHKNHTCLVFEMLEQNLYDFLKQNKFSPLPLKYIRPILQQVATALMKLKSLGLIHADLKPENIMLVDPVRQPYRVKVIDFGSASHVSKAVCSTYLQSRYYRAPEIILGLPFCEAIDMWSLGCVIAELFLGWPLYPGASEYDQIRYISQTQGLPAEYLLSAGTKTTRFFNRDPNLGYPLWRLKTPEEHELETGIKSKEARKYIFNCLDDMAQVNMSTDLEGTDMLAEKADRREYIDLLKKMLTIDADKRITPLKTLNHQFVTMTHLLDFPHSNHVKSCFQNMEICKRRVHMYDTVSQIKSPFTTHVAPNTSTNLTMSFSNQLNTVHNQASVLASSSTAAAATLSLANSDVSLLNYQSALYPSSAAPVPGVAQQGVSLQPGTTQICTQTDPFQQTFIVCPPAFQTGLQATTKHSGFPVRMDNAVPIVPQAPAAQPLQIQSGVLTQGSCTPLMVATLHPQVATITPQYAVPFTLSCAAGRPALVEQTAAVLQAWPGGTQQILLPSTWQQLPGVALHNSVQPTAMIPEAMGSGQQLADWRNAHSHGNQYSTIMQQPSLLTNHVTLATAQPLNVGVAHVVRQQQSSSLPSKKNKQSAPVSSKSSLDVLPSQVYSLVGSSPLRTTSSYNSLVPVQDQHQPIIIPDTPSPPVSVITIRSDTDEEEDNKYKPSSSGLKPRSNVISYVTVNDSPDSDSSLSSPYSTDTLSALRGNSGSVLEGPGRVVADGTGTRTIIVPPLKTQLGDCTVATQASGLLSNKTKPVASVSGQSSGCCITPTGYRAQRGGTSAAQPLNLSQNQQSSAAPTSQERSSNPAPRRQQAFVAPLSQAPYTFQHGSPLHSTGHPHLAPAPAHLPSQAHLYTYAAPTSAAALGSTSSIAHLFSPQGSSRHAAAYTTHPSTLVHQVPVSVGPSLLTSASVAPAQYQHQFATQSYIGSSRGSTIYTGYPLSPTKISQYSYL
GSK3B (human), sequence (P49841 whole entry, looked up): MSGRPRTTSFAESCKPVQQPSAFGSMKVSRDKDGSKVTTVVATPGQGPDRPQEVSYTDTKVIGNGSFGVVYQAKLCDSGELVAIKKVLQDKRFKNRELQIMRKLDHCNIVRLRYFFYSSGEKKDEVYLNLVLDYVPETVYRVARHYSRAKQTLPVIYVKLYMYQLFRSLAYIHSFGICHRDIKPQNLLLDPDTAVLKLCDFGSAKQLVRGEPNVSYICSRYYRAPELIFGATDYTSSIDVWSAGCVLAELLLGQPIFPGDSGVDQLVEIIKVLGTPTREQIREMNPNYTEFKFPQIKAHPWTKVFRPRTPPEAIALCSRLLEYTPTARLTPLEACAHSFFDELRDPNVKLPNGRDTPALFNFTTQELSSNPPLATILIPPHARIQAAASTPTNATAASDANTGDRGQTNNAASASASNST
EPHA2 (human), sequence (P29317 whole entry, looked up): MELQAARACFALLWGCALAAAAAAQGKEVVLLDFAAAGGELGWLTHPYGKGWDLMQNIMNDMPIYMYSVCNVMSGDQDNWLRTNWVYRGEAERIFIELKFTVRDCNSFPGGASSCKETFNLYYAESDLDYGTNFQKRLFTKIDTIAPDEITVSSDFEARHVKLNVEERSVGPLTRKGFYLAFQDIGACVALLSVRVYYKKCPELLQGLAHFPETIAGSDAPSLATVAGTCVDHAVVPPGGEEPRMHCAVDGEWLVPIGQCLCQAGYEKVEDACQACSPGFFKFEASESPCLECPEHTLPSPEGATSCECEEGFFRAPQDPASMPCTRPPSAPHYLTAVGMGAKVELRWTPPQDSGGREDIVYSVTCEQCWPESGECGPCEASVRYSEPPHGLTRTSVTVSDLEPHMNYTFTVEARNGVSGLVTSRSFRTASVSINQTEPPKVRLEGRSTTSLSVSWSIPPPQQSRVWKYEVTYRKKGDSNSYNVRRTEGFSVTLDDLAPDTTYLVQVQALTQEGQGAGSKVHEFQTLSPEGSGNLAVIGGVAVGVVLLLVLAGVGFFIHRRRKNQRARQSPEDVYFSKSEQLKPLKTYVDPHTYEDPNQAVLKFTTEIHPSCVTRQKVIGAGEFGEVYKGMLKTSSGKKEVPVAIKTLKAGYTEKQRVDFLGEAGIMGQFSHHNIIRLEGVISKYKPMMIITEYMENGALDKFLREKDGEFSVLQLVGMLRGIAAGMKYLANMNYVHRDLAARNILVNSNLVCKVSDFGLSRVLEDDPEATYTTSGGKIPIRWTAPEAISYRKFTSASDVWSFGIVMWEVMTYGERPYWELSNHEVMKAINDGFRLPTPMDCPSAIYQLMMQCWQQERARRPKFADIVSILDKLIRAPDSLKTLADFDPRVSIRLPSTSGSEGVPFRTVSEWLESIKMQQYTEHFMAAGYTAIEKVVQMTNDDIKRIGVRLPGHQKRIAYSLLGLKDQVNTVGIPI
RIPK2 (human), sequence (O43353 whole entry, looked up): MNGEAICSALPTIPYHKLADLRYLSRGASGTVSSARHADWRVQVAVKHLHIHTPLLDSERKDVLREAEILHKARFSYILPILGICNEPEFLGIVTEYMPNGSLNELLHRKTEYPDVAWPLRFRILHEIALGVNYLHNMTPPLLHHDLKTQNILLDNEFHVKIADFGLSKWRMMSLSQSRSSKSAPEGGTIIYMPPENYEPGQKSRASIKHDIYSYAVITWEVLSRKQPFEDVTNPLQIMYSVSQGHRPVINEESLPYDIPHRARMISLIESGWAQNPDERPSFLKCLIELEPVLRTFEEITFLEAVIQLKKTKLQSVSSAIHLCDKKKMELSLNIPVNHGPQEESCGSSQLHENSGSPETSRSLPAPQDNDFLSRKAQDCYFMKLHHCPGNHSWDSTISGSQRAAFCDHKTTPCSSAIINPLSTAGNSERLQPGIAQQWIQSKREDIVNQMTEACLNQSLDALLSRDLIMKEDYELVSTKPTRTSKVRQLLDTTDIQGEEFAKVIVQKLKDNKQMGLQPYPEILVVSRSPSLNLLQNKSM
BRSK1 (human), sequence (Q8TDC3 whole entry, looked up): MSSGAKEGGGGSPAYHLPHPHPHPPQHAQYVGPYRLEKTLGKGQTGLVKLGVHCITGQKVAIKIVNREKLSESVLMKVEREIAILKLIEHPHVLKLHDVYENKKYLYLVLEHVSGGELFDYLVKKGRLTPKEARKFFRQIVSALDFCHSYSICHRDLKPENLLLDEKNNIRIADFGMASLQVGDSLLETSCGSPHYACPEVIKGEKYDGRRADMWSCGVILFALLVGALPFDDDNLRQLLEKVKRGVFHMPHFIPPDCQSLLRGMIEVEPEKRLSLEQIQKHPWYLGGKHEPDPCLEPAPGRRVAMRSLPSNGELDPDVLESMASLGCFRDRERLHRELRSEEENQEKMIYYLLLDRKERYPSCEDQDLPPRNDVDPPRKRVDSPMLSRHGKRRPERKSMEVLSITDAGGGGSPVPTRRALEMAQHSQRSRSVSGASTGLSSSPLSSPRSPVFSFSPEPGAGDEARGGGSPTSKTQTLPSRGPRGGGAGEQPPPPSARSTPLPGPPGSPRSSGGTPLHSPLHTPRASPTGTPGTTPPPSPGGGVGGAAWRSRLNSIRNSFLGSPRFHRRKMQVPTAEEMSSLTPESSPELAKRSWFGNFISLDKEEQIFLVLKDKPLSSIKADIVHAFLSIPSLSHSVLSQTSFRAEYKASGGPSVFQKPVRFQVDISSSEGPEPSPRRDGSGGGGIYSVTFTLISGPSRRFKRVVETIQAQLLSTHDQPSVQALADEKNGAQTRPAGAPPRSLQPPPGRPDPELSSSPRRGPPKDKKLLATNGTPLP
MARK1 (human), sequence (Q9P0L2 whole entry, looked up): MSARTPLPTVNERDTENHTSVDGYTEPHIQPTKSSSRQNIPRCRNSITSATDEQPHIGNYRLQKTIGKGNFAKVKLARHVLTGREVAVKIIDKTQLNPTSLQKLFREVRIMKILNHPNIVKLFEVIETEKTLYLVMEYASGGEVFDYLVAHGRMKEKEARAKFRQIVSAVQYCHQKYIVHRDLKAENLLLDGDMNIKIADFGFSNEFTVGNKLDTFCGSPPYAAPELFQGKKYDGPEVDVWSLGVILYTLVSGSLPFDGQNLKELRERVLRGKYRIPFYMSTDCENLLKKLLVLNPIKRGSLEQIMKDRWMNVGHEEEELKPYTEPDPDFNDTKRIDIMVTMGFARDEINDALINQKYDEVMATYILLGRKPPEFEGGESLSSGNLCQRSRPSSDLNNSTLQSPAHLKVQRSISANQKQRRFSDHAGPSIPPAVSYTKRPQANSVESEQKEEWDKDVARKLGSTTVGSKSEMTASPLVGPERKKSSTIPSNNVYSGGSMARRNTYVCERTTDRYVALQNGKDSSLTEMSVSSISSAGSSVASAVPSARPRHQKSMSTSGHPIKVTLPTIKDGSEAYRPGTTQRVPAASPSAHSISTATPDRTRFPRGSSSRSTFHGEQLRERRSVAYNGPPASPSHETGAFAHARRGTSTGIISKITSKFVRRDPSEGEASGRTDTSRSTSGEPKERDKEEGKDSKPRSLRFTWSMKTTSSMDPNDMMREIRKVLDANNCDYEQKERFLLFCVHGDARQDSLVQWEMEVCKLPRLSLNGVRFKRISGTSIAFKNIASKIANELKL

## O=C(Nc1nc2cc(C(F)(F)F)cc(NC3CC3)n2n1)c1cccnc1
MAP3K7 TAB1 (human); compound 0.01 µM
  residual activity: 92%
MAP3K7 TAB1 (human); compound 1.0 µM
  residual activity: 84%
ROCK2 (rat); compound 0.01 µM
  residual activity: 105%
ROCK2 (rat); compound 0.1 µM
  residual activity: 106%
ROCK2 (rat); compound 1.0 µM
  residual activity: 97%
FGFR1 (human); compound 0.01 µM
  residual activity: 111%
FGFR1 (human); compound 0.1 µM
  residual activity: 105%
FGFR1 (human); compound 1.0 µM
  residual activity: 101%
PRKCZ (human); compound 0.01 µM
  residual activity: 96%
PRKCZ (human); compound 1.0 µM
  residual activity: 84%
MAPK11 (human); compound 0.01 µM
  residual activity: 106%
MAPK11 (human); compound 0.1 µM
  residual activity: 121%
MAPK11 (human); compound 1.0 µM
  residual activity: 107%
HIPK1 (human); compound 0.01 µM
  residual activity: 96%
HIPK1 (human); compound 0.1 µM
  residual activity: 96%
HIPK1 (human); compound 1.0 µM
  residual activity: 92%
TAOK1 (human); compound 0.01 µM
  residual activity: 91%
TAOK1 (human); compound 0.1 µM
  residual activity: 101%
TAOK1 (human); compound 1.0 µM
  residual activity: 105%
SRC (human); compound 0.01 µM
  residual activity: 100%
SRC (human); compound 0.1 µM
  residual activity: 107%
SRC (human); compound 1.0 µM
  residual activity: 102%
[1]; compound 0.01 µM
  residual activity: 97%
[1]; compound 0.1 µM
  residual activity: 103%
[1]; compound 1.0 µM
  residual activity: 94%
EPHA2 (human); compound 0.01 µM
  residual activity: 95%
EPHA2 (human); compound 0.1 µM
  residual activity: 93%
EPHA2 (human); compound 1.0 µM
  residual activity: 100%
MAPKAPK5 (human); compound 0.01 µM
  residual activity: 97%
MAPKAPK5 (human); compound 0.1 µM
  residual activity: 112%
MAPKAPK5 (human); compound 1.0 µM
  residual activity: 98%
MINK1 (human); compound 0.01 µM
  residual activity: 125%
MINK1 (human); compound 0.1 µM
  residual activity: 113%
MINK1 (human); compound 1.0 µM
  residual activity: 120%
IRAK4 (human); compound 0.01 µM
  residual activity: 90%
IRAK4 (human); compound 0.1 µM
  residual activity: 90%
IRAK4 (human); compound 1.0 µM
  residual activity: 83%
CLK2 (human); compound 0.01 µM
  residual activity: 101%
CLK2 (human); compound 0.1 µM
  residual activity: 82%
CLK2 (human); compound 1.0 µM
  residual activity: 40%
RIPK2 (human); compound 0.01 µM
  residual activity: 89%
RIPK2 (human); compound 0.1 µM
  residual activity: 87%
RIPK2 (human); compound 1.0 µM
  residual activity: 89%
MAPK14 (human); compound 0.01 µM
  residual activity: 109%
MAPK14 (human); compound 0.1 µM
  residual activity: 121%
MAPK14 (human); compound 1.0 µM
  residual activity: 114%
IGF1R (human); compound 0.01 µM
  residual activity: 88%
IGF1R (human); compound 0.1 µM
  residual activity: 89%
IGF1R (human); compound 1.0 µM
  residual activity: 79%
MAPK15 (human); compound 0.01 µM
  residual activity: 102%
MAPK15 (human); compound 0.1 µM
  residual activity: 110%
MAPK15 (human); compound 1.0 µM
  residual activity: 102%
CSK (human); compound 0.01 µM
  residual activity: 96%
CSK (human); compound 0.1 µM
  residual activity: 95%
CSK (human); compound 1.0 µM
  residual activity: 89%
CAMKK2 (human); compound 0.01 µM
  residual activity: 108%
CAMKK2 (human); compound 0.1 µM
  residual activity: 96%
CAMKK2 (human); compound 1.0 µM
  residual activity: 105%
DYRK3 (human); compound 0.01 µM
  residual activity: 92%
DYRK3 (human); compound 0.1 µM
  residual activity: 119%
DYRK3 (human); compound 1.0 µM
  residual activity: 91%
MARK1 (human); compound 0.01 µM
  residual activity: 93%
MARK1 (human); compound 0.1 µM
  residual activity: 90%
MARK1 (human); compound 1.0 µM
  residual activity: 86%
CSNK1D (human); compound 0.01 µM
  residual activity: 92%
CSNK1D (human); compound 0.1 µM
  residual activity: 93%
CSNK1D (human); compound 1.0 µM
  residual activity: 59%
MAP3K1 (human); compound 0.01 µM
  residual activity: 97%
MAP3K1 (human); compound 0.1 µM
  residual activity: 108%
MAP3K1 (human); compound 1.0 µM
  residual activity: 91%
MELK (human); compound 0.01 µM
  residual activity: 97%
MELK (human); compound 0.1 µM
  residual activity: 107%
MELK (human); compound 1.0 µM
  residual activity: 92%
HIPK3 (human); compound 0.01 µM
  residual activity: 101%
HIPK3 (human); compound 0.1 µM
  residual activity: 102%
HIPK3 (human); compound 1.0 µM
  residual activity: 96%
GSK3B (human); compound 0.01 µM
  residual activity: 87%
GSK3B (human); compound 0.1 µM
  residual activity: 92%
GSK3B (human); compound 1.0 µM
  residual activity: 79%
LCK (mouse); compound 0.01 µM
  residual activity: 106%
LCK (mouse); compound 0.1 µM
  residual activity: 97%
LCK (mouse); compound 1.0 µM
  residual activity: 95%
JAK2 JH1 JH2 (human); compound 0.01 µM
  residual activity: 114%
JAK2 JH1 JH2 (human); compound 0.1 µM
  residual activity: 100%
JAK2 JH1 JH2 (human); compound 1.0 µM
  residual activity: 100%
[2]; compound 0.01 µM
  residual activity: 107%
[2]; compound 0.1 µM
  residual activity: 132%
[2]; compound 1.0 µM
  residual activity: 105%
NTRK1 (human); compound 0.01 µM
  residual activity: 80%
NTRK1 (human); compound 0.1 µM
  residual activity: 83%
NTRK1 (human); compound 1.0 µM
  residual activity: 81%
INSR (human); compound 0.01 µM
  residual activity: 107%
INSR (human); compound 1.0 µM
  residual activity: 100%
BRSK1 (human); compound 0.01 µM
  residual activity: 102%
BRSK1 (human); compound 0.1 µM
  residual activity: 90%
BRSK1 (human); compound 1.0 µM
  residual activity: 95%
FLT1 (human); compound 0.01 µM
  residual activity: 109%
FLT1 (human); compound 0.1 µM
  residual activity: 88%
FLT1 (human); compound 1.0 µM
  residual activity: 108%
RPS6KA3 KD1 KD2 (human); compound 0.01 µM
  residual activity: 112%
RPS6KA3 KD1 KD2 (human); compound 0.1 µM
  residual activity: 106%
RPS6KA3 KD1 KD2 (human); compound 1.0 µM
  residual activity: 89%
